In patent publication US12679878B2, “CRF2 receptor agonists and their use in therapy” (SANOFI, priority 2020, dated 2026):
Starred links: 1 amine or outer side, 2 acyl side, 3 side chain; linkers in the order of their positions; H or OH if unused. Non-standard residues stand in square brackets, D forms with d. Residues, ends and D or L forms follow the SMILES beside them. Groups on a side chain read outwards from the residue. *: point of attachment. C18 diacid = O=C(O)CCCCCCCCCCCCCCCCC(=O)*; γGlu = O=C(O)[C@H](CCC(=O)[*:2])N[*:1]; AEEA = NCCOCCOCC(=O)O; Aib = CC(C)(N)C(=O)O

What was measured:
[1] = Pharmacokinetic properties in mice, i.v. or s.c. (Example 16); type: in vivo, C57BI/6 mice; conditions: female, C57BL/6, plasma, Mouse
Protocol: (§1) The pharmacokinetic properties of exemplary peptides SEQ ID NO: 35 and SEQ ID NO: 24 were assessed in mice and rats.
(§2) The test compound was administered in a suitable buffer system (PBS buffer solution at pH 7.4, or DPBS solution) at concentrations of 0.05, 0.1, 0.5 or 1 mg/ml depending on the dose, species and administration volume. Female C57BI/6 mice and male SD rate were dosed 0.1 mg/kg or 0.3 mg/kg intravenously or subcutaneously. The animals were sacrificed, and blood samples were collected after 0.08, 0.25, 0.5, 1, 2, 4, 8, 24, 32, and 48 hours post-intravenous administration and 0.25, 0.5, 1, 2, 4, 8, 24, 32, and 48 hours post-subcutaneous administration, respectively. Plasma samples were analysed after protein precipitation via liquid chromatography mass spectrometry (LC/MS). Pharmacokinetic parameters and half-life were calculated using Phoenix-WinNonlin 8.1 using a non-compartmental model and linear trapezoidal interpolation calculation.

[2] = Pharmacokinetic properties in rats, i.v. or s.c. (Example 16); type: in vivo, SD rat; conditions: Rat
Protocol: as §1, §2

endogenous human CRF2 = target: T1, endogenous human CRF2 (Homo sapiens, UniProt Q13324); experiment: cAMP agonist effect in NCI-H82 cells expressing endogenous human CRF2 (Example 10); type: cell-based; conditions: cAMP HTRF, 5 min activation
T1 construct: endogenous in cells; host or cells: NCI-H82
T1 sequence (Q13324 1-411): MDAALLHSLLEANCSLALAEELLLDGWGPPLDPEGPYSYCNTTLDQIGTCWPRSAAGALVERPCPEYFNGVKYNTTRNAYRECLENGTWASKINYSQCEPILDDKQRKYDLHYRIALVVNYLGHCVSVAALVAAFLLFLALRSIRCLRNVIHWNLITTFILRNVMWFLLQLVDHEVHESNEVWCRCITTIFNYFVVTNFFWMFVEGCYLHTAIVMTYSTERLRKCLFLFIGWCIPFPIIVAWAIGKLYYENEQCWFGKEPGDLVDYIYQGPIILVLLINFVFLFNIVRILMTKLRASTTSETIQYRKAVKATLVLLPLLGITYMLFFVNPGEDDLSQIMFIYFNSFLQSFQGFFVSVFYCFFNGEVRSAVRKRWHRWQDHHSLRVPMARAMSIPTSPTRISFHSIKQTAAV
Protocol: The agonist effect of the compounds was assessed in NCI-H82 cells expressing endogenous human CRF2.
NCI-H82 cells in suspension were plated in low-volume 384-well plates at a density of 30000 cells/well in 5 μl of test medium (RPMI+1 mM IBMX). The plates were briefly centrifuged at 800 rpm to allow the cell suspension to move to the bottom of the wells and then incubated for 2 hours at 37° C. in 5% CO2. 5 μl of test compounds at appropriate concentrations (10-11 to 3×10-7) diluted in test medium were then transferred in 384 wells plates. After 5 min of activation, the reaction was stopped by addition of HTRF revelation reagents with a multidrop dispenser. The two reagents were 5 μl/well of Anti-CAMP-cryptate diluted 20-fold in conjugate and lysis buffer and 5 μl/well of cAMP-D2 diluted 20-fold in conjugate and lysis buffer. After one-hour incubation at room temperature in the dark, the plates were read on a Clariostar apparatus.

[3] = male, Sprague-Dawley (SD), plasma, iv, 0.1 mg/kg i.v.
[4] = male, Sprague-Dawley (SD), plasma, sc, 0.1 mg/kg s.c.

SMILES | AUC(0-t) ([1]; iv, 0.3 mg/kg i.v.) | Cmax ([1]; iv, 0.3 mg/kg i.v.) | half-life ([1]; iv, 0.3 mg/kg i.v.) | clearance ([1]; iv, 0.3 mg/kg i.v., read-out: CI (converted)) | AUC(0-t) ([1]; sc, 0.1 mg/kg s.c.) | Cmax ([1]; sc, 0.1 mg/kg s.c.) | half-life ([1]; sc, 0.1 mg/kg s.c.) | AUClast ([2]; 0.1 mg/kg i.v.) | clearance ([2]; male, SD, plasma, iv, 0.1 mg/kg i.v., read-out: CI (converted)) | bioavailability ([2]; male, SD, plasma, sc, 0.1 mg/kg s.c.) | Cmax [2, 3] | half-life [2, 3] | AUC(0-t) [2, 4] | Cmax [2, 4] | half-life [2, 4] | EC50 (endogenous human CRF2)
CC[C@H](C)[C@H](N)C(=O)N[C@H](C(=O)N[C@@H](CC(C)C)C(=O)N[C@@H](CO)C(=O)N[C@@H](CC(C)C)C(=O)N[C@@H](CC(=O)O)C(=O)N[C@H](C(=O)N1CCC[C@H]1C(=O)N[C@H](C(=O)N[C@@H](CCCCN)C(=O)N[C@@H](CC(C)C)C(=O)N[C@@H](CCCCNC(=O)COCCOCCNC(=O)COCCOCCNC(=O)CC[C@H](NC(=O)CCCCCCCCCCCCCCCCC(=O)O)C(=O)O)C(=O)N[C@@H](CCCCN)C(=O)N[C@H](C(=O)N[C@@H](CC(C)C)C(=O)N[C@@H](CC(C)C)C(=O)N[C@@H](CCC(=O)O)C(=O)N[C@@H](CCC(N)=O)C(=O)N[C@@H](CCC(=O)O)C(=O)N[C@@H](CCCCN)C(=O)N[C@@H](CCC(N)=O)C(=O)N[C@@H](CCCCN)C(=O)N[C@@H](CCCCN)C(=O)N[C@@H](CCC(N)=O)C(=O)N[C@@H](CCCNC(=N)N)C(=O)N[C@@H](CCC(=O)O)C(=O)N[C@@H](CCC(N)=O)C(=O)N[C@@H](C)C(=O)N[C@@H](CCC(=O)O)C(=O)N[C@H](C(=O)N[C@@H](CC(N)=O)C(=O)N[C@@H](CCCCN)C(=O)N[C@@H](CCC(N)=O)C(=O)N[C@H](C(=O)N[C@@H](CC(C)C)C(=O)N[C@@H](C)C(=O)N[C@@H](CCC(N)=O)C(=O)N[C@H](C(N)=O)C(C)C)[C@@H](C)CC)[C@@H](C)O)[C@@H](C)CC)[C@@H](C)CC)C(C)C)C(C)C [compound 35] (H-IVLSLDVPIKLK([AEEA-AEEA-γGlu-C18 diacid])KILLEQEKQKKQREQAETNKQILAQV-NH2; N-terminus assumed) | 23700 ng·h/mL | 4150 ng/mL | 6.4 h | 0.21 mL/min/kg | 18500 ng·h/mL | 1410 ng/mL | 5.5 h | 2790 ng·h/mL | 0.597 mL/min/kg | 45.8% | 1900 ng/mL | 3 h | 1200 ng·h/mL | 131 ng/mL | 6.1 h | 
CC[C@H](C)[C@H](N)C(=O)N[C@H](C(=O)N[C@@H](CC(C)C)C(=O)N[C@@H](CO)C(=O)N[C@@H](CC(C)C)C(=O)N[C@@H](CC(=O)O)C(=O)N[C@@H](C(=O)N1CCC[C@H]1C(=O)N[C@H](C(=O)N[C@@H](CCCCN)C(=O)N[C@@H](CC(C)C)C(=O)N[C@@H](CCCCNC(=O)COCCOCCNC(=O)COCCOCCNC(=O)CC[C@H](NC(=O)CCCCCCCCCCCCCCCCC(=O)O)C(=O)O)C(=O)N[C@@H](CCC(N)=O)C(=O)N[C@H](C(=O)N[C@@H](CC(C)C)C(=O)N[C@@H](CC(C)C)C(=O)N[C@@H](CCCCN)C(=O)N[C@@H](CCC(N)=O)C(=O)N[C@@H](CCC(=O)O)C(=O)N[C@@H](CCCNC(=N)N)C(=O)N[C@@H](CCC(N)=O)C(=O)N[C@@H](CCCCN)C(=O)NC(C)(C)C(=O)N[C@@H](CCC(N)=O)C(=O)N[C@@H](CCCNC(=N)N)C(=O)N[C@@H](CCC(N)=O)C(=O)N[C@@H](CCC(N)=O)C(=O)N[C@@H](C)C(=O)N[C@@H](CCC(=O)O)C(=O)N[C@@H](CCCCN)C(=O)N[C@@H](CC(N)=O)C(=O)N[C@@H](CCCCN)C(=O)N[C@@H](CCC(N)=O)C(=O)N[C@H](C(=O)N[C@@H](CC(C)C)C(=O)N[C@@H](C)C(=O)N[C@@H](CCC(N)=O)C(=O)N[C@H](C(N)=O)C(C)C)[C@@H](C)CC)[C@@H](C)CC)[C@@H](C)CC)C(C)C)C(C)C [compound 135] (H-IVLSLD[dV]PIKLK([AEEA-AEEA-γGlu-C18 diacid])QILLKQERQK[Aib]QRQQAEKNKQILAQV-NH2; N-terminus assumed) |  |  |  |  |  |  |  |  |  |  |  |  |  |  |  | 110 nM
